# Assay results published in the supplement of paper PMC10307832.
# Columns and labels:
# Assay in all cases: relative viability (nuclei count vs DMSO), 5 days (fraction); higher = more cells survive
# [1] = test system: NCI-H460
# In short: (§1)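 A single step with final 0.05% Triton X-100, 1% formaldehyde and 1 ug/ml Hoechst fixed the cells and stained nuclei 5 days after treatment. Lung cancer cell lines in 1536-well plates had been treated by pin tool the day after seeding with one drug alone or a fixed anchor-drug dose plus five library-drug doses (not always all listed) in √10 steps, and nuclei were counted on 4× images. Relative viability is the ratio of nuclei in treated wells to nuclei in vehicle wells, taken as the median of duplicate plates.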
# [2] = test system: NCI-H2342
# In short: as §1
# [3] = test system: EPLC-272H
# In short: as §1
# [4] = test system: NCI-H2228
# In short: as §1
# [5] = test system: NCI-H322M
# In short: as §1
# [6] = test system: COR-L 105
# In short: as §1
# [7] = test system: NCI-H2087
# In short: as §1
# [8] = test system: ChaGo-K-1
# In short: as §1
# [9] = test system: NCI-H2009
# In short: as §1
# [10] = test system: NCI-H1993
# In short: as §1
# [11] = test system: SK-MES-1
# In short: as §1
# [12] = test system: NCI-H441
# In short: as §1
# [13] = test system: NCI-H1975
# In short: as §1
# [14] = test system: NCI-H1792
# In short: as §1
# [15] = test system: H3255
# In short: as §1
# [16] = test system: NCI-H2085
# In short: as §1
# [17] = test system: CAL-12T
# In short: as §1
# [18] = test system: HCC-366
# In short: as §1
# [19] = test system: EKVX
# In short: as §1
# [20] = test system: NCI-H1355
# In short: as §1
# [21] = test system: HCC-827
# In short: as §1
compound,measurement,setting,value
Cc1csc(=NC2CCCCC2)n1/N=C/c1ccc(O)c(O)c1O [MIM1] + Nc1nc2[nH]cc(CCc3ccc(C(=O)N[C@@H](CCC(=O)O)C(=O)O)cc3)c2c(=O)[nH]1 [Pemetrexed] (partner 0.2 µM),relative viability,[1]; first compound 0.2 µM,0.0717
same,relative viability,[1]; first compound 0.6325 µM,0.0675
same,relative viability,[1]; first compound 2 µM,0.0683
same,relative viability,[1]; first compound 6.325 µM,0.0681
same,relative viability,[1]; first compound 20 µM,0.0657
same,relative viability,[2]; first compound 0.2 µM,0.719
same,relative viability,[2]; first compound 0.6325 µM,0.768
same,relative viability,[2]; first compound 2 µM,0.75
same,relative viability,[2]; first compound 6.325 µM,0.751
same,relative viability,[2]; first compound 20 µM,0.757
same,relative viability,[3]; first compound 0.2 µM,0.328
same,relative viability,[3]; first compound 0.6325 µM,0.372
same,relative viability,[3]; first compound 2 µM,0.27
same,relative viability,[3]; first compound 6.325 µM,0.157
same,relative viability,[3]; first compound 20 µM,0.166
same,relative viability,[4]; first compound 0.2 µM,0.386
same,relative viability,[4]; first compound 0.6325 µM,0.345
same,relative viability,[4]; first compound 2 µM,0.347
same,relative viability,[4]; first compound 6.325 µM,0.168
same,relative viability,[4]; first compound 20 µM,0.152
same,relative viability,[5]; first compound 0.2 µM,0.614
same,relative viability,[5]; first compound 0.6325 µM,0.58
same,relative viability,[5]; first compound 2 µM,0.558
same,relative viability,[5]; first compound 6.325 µM,0.557
same,relative viability,[5]; first compound 20 µM,0.543
same,relative viability,[6]; first compound 0.2 µM,1.02
same,relative viability,[6]; first compound 0.6325 µM,1.13
same,relative viability,[6]; first compound 2 µM,0.882
same,relative viability,[6]; first compound 6.325 µM,0.933
same,relative viability,[6]; first compound 20 µM,1.04
same,relative viability,[7]; first compound 0.2 µM,0.593
same,relative viability,[7]; first compound 0.6325 µM,0.724
same,relative viability,[7]; first compound 2 µM,0.729
same,relative viability,[7]; first compound 6.325 µM,0.601
same,relative viability,[7]; first compound 20 µM,0.644
same,relative viability,[8]; first compound 0.2 µM,0.255
same,relative viability,[8]; first compound 0.6325 µM,0.269
same,relative viability,[8]; first compound 2 µM,0.263
same,relative viability,[8]; first compound 6.325 µM,0.257
same,relative viability,[8]; first compound 20 µM,0.189
same,relative viability,[9]; first compound 0.2 µM,1.03
same,relative viability,[9]; first compound 0.6325 µM,1.05
same,relative viability,[9]; first compound 2 µM,1.09
same,relative viability,[9]; first compound 6.325 µM,0.916
same,relative viability,[9]; first compound 20 µM,0.884
same,relative viability,[10]; first compound 0.2 µM,0.572
same,relative viability,[10]; first compound 0.6325 µM,0.553
same,relative viability,[10]; first compound 2 µM,0.596
same,relative viability,[10]; first compound 6.325 µM,0.481
same,relative viability,[10]; first compound 20 µM,0.384
same,relative viability,[11]; first compound 0.2 µM,0.962
same,relative viability,[11]; first compound 0.6325 µM,0.907
same,relative viability,[11]; first compound 2 µM,0.796
same,relative viability,[11]; first compound 6.325 µM,0.56
same,relative viability,[11]; first compound 20 µM,0.298
same,relative viability,[12]; first compound 0.2 µM,0.259
same,relative viability,[12]; first compound 0.6325 µM,0.27
same,relative viability,[12]; first compound 2 µM,0.256
same,relative viability,[12]; first compound 6.325 µM,0.232
same,relative viability,[12]; first compound 20 µM,0.159
same,relative viability,[13]; first compound 0.2 µM,0.289
same,relative viability,[13]; first compound 0.6325 µM,0.317
same,relative viability,[13]; first compound 2 µM,0.28
same,relative viability,[13]; first compound 6.325 µM,0.223
same,relative viability,[13]; first compound 20 µM,0.187
same,relative viability,[14]; first compound 0.2 µM,0.682
same,relative viability,[14]; first compound 0.6325 µM,0.644
same,relative viability,[14]; first compound 2 µM,1.02
same,relative viability,[14]; first compound 6.325 µM,0.716
same,relative viability,[14]; first compound 20 µM,0.685
same,relative viability,[15]; first compound 0.2 µM,0.539
same,relative viability,[15]; first compound 0.6325 µM,0.553
same,relative viability,[15]; first compound 2 µM,0.532
same,relative viability,[15]; first compound 6.325 µM,0.556
same,relative viability,[15]; first compound 20 µM,0.312
same,relative viability,[16]; first compound 0.2 µM,0.903
same,relative viability,[16]; first compound 0.6325 µM,0.873
same,relative viability,[16]; first compound 2 µM,0.885
same,relative viability,[16]; first compound 6.325 µM,0.777
same,relative viability,[16]; first compound 20 µM,0.833
same,relative viability,[17]; first compound 0.2 µM,1.25
same,relative viability,[17]; first compound 0.6325 µM,1.07
same,relative viability,[17]; first compound 2 µM,1.04
same,relative viability,[17]; first compound 6.325 µM,0.847
same,relative viability,[17]; first compound 20 µM,0.925
same,relative viability,[18]; first compound 0.2 µM,0.161
same,relative viability,[18]; first compound 2 µM,0.176
same,relative viability,[18]; first compound 6.325 µM,0.152
same,relative viability,[18]; first compound 20 µM,0.0413
same,relative viability,[19]; first compound 0.2 µM,0.374
same,relative viability,[19]; first compound 0.6325 µM,0.392
same,relative viability,[19]; first compound 2 µM,0.318
same,relative viability,[19]; first compound 6.325 µM,0.287
same,relative viability,[19]; first compound 20 µM,0.29
same,relative viability,[20]; first compound 0.2 µM,1.05
same,relative viability,[20]; first compound 0.6325 µM,0.932
same,relative viability,[20]; first compound 2 µM,1.07
same,relative viability,[20]; first compound 6.325 µM,0.863
same,relative viability,[20]; first compound 20 µM,0.616
same,relative viability,[21]; first compound 0.2 µM,0.275
same,relative viability,[21]; first compound 0.6325 µM,0.249
same,relative viability,[21]; first compound 2 µM,0.263
same,relative viability,[21]; first compound 6.325 µM,0.246
same,relative viability,[21]; first compound 20 µM,0.167
